Experimental data published in PubChem BioAssay (NCI).
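48-hour exposure; five concentrations; linearly interpolated endpoints. Definition used: TGI = concentration required for complete inhibition of growth.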

What was measured:
Assay in all cases: NCI tumour cell line growth inhibition, 48 h
MDA-N = test system: MDA-N
LXFL 529 NSCLC = test system: LXFL 529 NSCLC
M19-MEL melanoma = test system: M19-MEL melanoma
RXF-631 renal = test system: RXF-631 renal
P388 leukemia = test system: P388 leukemia
P388/ADR leukemia = test system: P388/ADR leukemia
SN12K1 renal = test system: SN12K1 renal
XF 498 CNS = test system: XF 498 CNS
786-0 renal = test system: 786-0 renal

C=CCNC(=O)CN(CC(=O)OC)C1CCCCC1N(CC(=O)OC)CC(=O)OC (stereo not drawn)
TGI (MDA-N): > 100 µM

O=C(O)C12CC3CC(C1)C2C=C3P(=O)(O)O (stereo not drawn)
TGI (LXFL 529 NSCLC): > 100 µM
TGI (M19-MEL melanoma): > 100 µM

COc1cc(/C=C/C2=C(C#N)C(=O)OC2(C)C)ccc1O
TGI (M19-MEL melanoma): > 100 µM
TGI (RXF-631 renal): > 100 µM

Nc1n[nH]c(CCCCCCCc2nc(N)n[nH]2)n1
TGI (LXFL 529 NSCLC): > 100 µM
TGI (M19-MEL melanoma): > 100 µM

Cc1c(C2=NN=C(N=Nc3c(O)cccc3O)/C2=C/c2ccccc2)c(=O)n(-c2ccccc2)n1C
TGI (M19-MEL melanoma): > 100 µM
TGI (P388 leukemia): > 100 µM
TGI (P388/ADR leukemia): > 100 µM
TGI (SN12K1 renal): > 100 µM
TGI (XF 498 CNS): > 100 µM

CC(C)=CC(=O)OC1C2C(C)=CC(O)C(O)C2(C)C2C3(O)OCC24C(CC(=O)OC14)C(C)C3O (stereo not drawn)
TGI (M19-MEL melanoma): 0.127 µM
TGI (P388 leukemia): 0.0201 µM
TGI (P388/ADR leukemia): 7.09 µM
TGI (SN12K1 renal): 0.0909 µM
TGI (XF 498 CNS): 0.587 µM

Cc1cn(C2CC(O)C(Cn3nncc3Cn3ncc(=O)[nH]c3=O)O2)c(=O)[nH]c1=O (stereo not drawn)
TGI (MDA-N): > 100 µM

Cc1cccc(CNc2ncnc3[nH]ncc23)c1
TGI (786-0 renal): > 100 µM
TGI (MDA-N): > 100 µM

O=C(O)CCCc1ccccc1
TGI (MDA-N): > 1000 µM

CCCCCCCCCCCCC(O)C(=O)O (stereo not drawn)
TGI (786-0 renal): > 100 µM
TGI (MDA-N): > 100 µM
